Measured values: EP0133795B1 (THE McLEAN HOSPITAL CORPORATION, priority 1983, dated 1985)
Entries after “also recorded” stand apart in the source; their conditions may differ.

Tests used:
[1] = n-Octanol/water partition coefficient; assay type: physicochemical; conditions: 5 ml n-octanol / 5 ml water, stirring 18 hours; read-out: KOW: Octanol/Water Partition Coefficient (converted)
Protocol: A Partition Coefficient was defined by the equation: [formula] representing the amount of the ester taken up per ml of n-octanol relative to the amount of the same compound taken up per ml of water.
The n-octanol/water partition coefficients were obtained from measurements of the distribution of 1, 3, 5 and 6 pmol quantities of each ^14C-labeled compound into a mixture of 5 ml of n-octanol and 5 ml water. At each concentration, the amount of labeled compound in the aqueous and n-octanol phases was calculated from the amount of radioactive material present after stirring for 18 hours.

in vivo = conditions: mouse, sc
[2] = test system: general motor activity of mice; assay: General locomotor activity of mice (Stoelting electronic activity monitor); assay type: in vivo, Balb/c mice; conditions: Mus musculus, ip, 1 h; i.p.; 60-min general motor activity vs vehicle-injected and uninjected controls; 8 animals per dose
[3] = Comparative brain/liver uptake of 14C-labeled compounds (Brain Penetration Index); conditions: for increase of 5-min BPI over GABA: 5 min after s.c. injection, relative to GABA; for time at which liver levels reach a maximum: s.c., mice
Protocol: The criterion used herein for measuring the extent to which a compound, from which the radical A is derived, crosses the blood-brain barrier is based on the uptake of this compound by the brain relative to its uptake by the liver. […] Measurements of the quantity of a compound present in brain and liver at 5 minutes after a subcutaneous (s.c.) injection were used to calculate a Brain Penetration Index (BPI), with the equation: [formula]
This is the amount of the compound present per gram of brain tissue as a percent of the amount per gram of liver tissue.
This procedure has the advantage that even for a sparingly soluble lipid ester, which tends to remain largely at the site of the injection and slowly diffuse into the circulation, its level in the liver will reflect the amount available rather than the initial dose injected.
The uptake of a ^14C-labeled compound into brain was compared with the uptake into liver of the same animal.
All determinations were carried out at 5 min after injection. The volumes of the injected doses into mice (body weight, 18-24 g) for the i.v., i.p., and s.c. doses were 0.15, 0.3 and 0.5 ml, respectively. […] Each tissue was homogenized in 8 ml of pyridine in a glass homogenizer.
Each labeled test compound was injected as a solution in 0.5 ml of saline (Compound 7) or in 25% propylene glycol in water (Compounds 1, 5, 6) subcutaneously (s.c.) into young adult Balb/c mice (18-24 g body weight). After 5 min (or longer) animals were sacrificed and the brain and liver removed, weighed and homogenized respectively in 8 ml and 10 ml of brain protein solvent (1 % (w/v) sodium dodecyl sulfate in 6 M urea and 19 mM EDTA, pH 7.4, 0.03 M phosphate). Aliquots (0.5 ml) of the homogenates were mixed with 10 ml of Aquasol 2 (New England Nuclear) and counted in a Beckman liquid scintillation counter. The total uptake of each compound per g brain and liver tissue was calculated. The proportion of uptake into brain as compared to liver (100%) of the same animal was designated as the Brain Penetration Index (BPI), expressed as a percentage typically at 5 min after injection.
Each of the ^14C-labeled Compounds 26, 28 and 30 were in 125 µl of the propylene glycol diluted with water up to 0.5 ml, and then injected subcutaneously into test Balb/c mice (20 ± 2 g weight). After 5 min the animals were sacrificed and the brain and liver were removed, weighed and homogenized in 8 ml and 10 ml of brain protein solvent, respectively. Next 0.5 ml aliquots were mixed with 10 ml of Aquasol 2 (New England Nuclear Corp., Boston, MA) and counted in a Beckman liquid scintillation counter. The data for the label in each tissue were used to calculate the total quantity of the compound present in brain and liver per gram of tissue. The ratio of the amount in brain as a percent of that present in liver at 5 min was taken as the Brain Penetration Index (BPI). Measurements at longer uptake times were also obtained to evaluate the accumulation of the compounds in the brain.

[4] = test system: bicuculline-induced epileptic seizures; assay: Delay of onset of bicuculline-induced seizures (anticonvulsant activity); assay type: in vivo, mouse; conditions: for anticonvulsant properties: administered at doses of 30 mg/kg; for In Vivo Delay of Time of Onset of Bicuculline-induced seizures: graded 0-5
Protocol: In a second behavioral test, the ability of a substance to prevent or delay the onset of biculline-induced epileptic seizures was measured. […] At 24 hr after i.p. injection of the cholesteryl derivative at a dose of 30 mg/kg (64 pmol/kg), the onset of seizures was delayed by 30% after an acute i.p. injection of bicuculline at 0.3 mg/kg. […] The dexamethasone and butyl esters had no effect.
The compounds were also injected i.p. at 1, 6 and 24 hr before the administration of bicuculline (0.3 mg/kg) s.c. The latency to the onset of generalized tonic-clonic epileptic seizures and the protection against the lethality of bicuculline were measured and evaluated as a percent of the data for vehicle-injected controls. No significant changes were obtained at the 1 hr and 6 hr time points. At the 24 hr time, however, some compounds delayed while others accelerated the onset of seizures.
The effect of the compound to delay the onset of a bicuculline-induced seizures was evaluated.
The ability of a substance to delay the onset of bicuculline-induced epileptic seizures in the mouse was measured (Table X). […] At 24 hr after i.p. injection of the cholesteryl derivative (6) at a dose of 30 mg/kg (64 pmol/kg), the onset of seizures was delayed by 30% (as compared to saline controls) after an acute i.p. injection of bicuculline at 0.3 mg/kg. […] The dexamethasone and butyl esters had no effect on seizures in mice.

[5] = mouse, in vivo
[6] = test system: general motor activity of mice; assay: General locomotor activity of mice (Stoelting electronic activity monitor); assay type: in vivo, Balb/c mice; conditions: for In Vivo Inhibition of General Motor Activity: graded 0-5; for effect on motor activity at low doses: 10 mg/kg (19 µmol/kg) or below, 10 mg/kg
Protocol: The effect of intraperitoneal (i.p.) injections of test compounds on the general motor activity of mice during a 60-min period was determined in a Stoelting electronic activity monitor. Dose-response curves were obtained from which the half-maximally effective values were calculated and the results are shown in Table V.
The compounds were dissolved in 25% (vols.) propylene glycol in water and injected i.p. into Balb/c mice (18-24 g). Dose-response measurements were obtained for 6 animals per dose or time point. Activity was monitored for 60 min using a Stoelting Electronic Activity Monitor (EAM) apparatus to assess the general motor activity of the animals.
The general locomotor activity of mice was measured in the Stolting activity monitor apparatus during 60 min after an intraperitoneal (i.p.) injection of a test compound.

stereotypic behavior = assay: Stereotypy behavior test (apomorphine or D-amphetamine induced); assay type: in vivo, mice
Protocol: Stereotypy tests were carried out by the method of A. Campbell et al, Neuropharmacol. 21, 953 (1982). Test mice were pretreated with Compound 26 (i.p. injection), then 15 min later apomorphine or D-amphetamine sulfate was injected i.p. The animals were observed every 10 min and rated for stereotypic behavior in comparison to controls.
Rating scale: • 0 = no stereotypy • 1 = discontinuous sniffing • 2 = continuous sniffing • 3 = continuous sniffing and jaw movements
The average total score per animal was obtained (maximum positive score = 18) over a 60-min period. A compound which depresses this score is considered to have properties of a neuroleptic with a potential for use as an antipsychotic agent. The results (see Table VIII) show a pronounced reduction of stereotypy, down to 24% of control.

[7] = 188 μmol/kg s.c., 5 min, Balb/c mice, mean ± S.E.M. (3 measurements)
[8] = 200 μmol/kg s.c., 60 min, Balb/c mice
[9] = 360 μmol/kg s.c., 180 min, Balb/c mice
[10] = Table IX summary, 5-min Brain Penetration Index
[11] = 20 μmol/kg s.c., 60 min, Balb/c mice
[12] = 60 μmol/kg s.c., 240 min, Balb/c mice
[13] = 67 μmol/kg s.c., 5 min, Balb/c mice, mean ± S.E.M. (3 measurements)
[14] = 170 μmol/kg s.c., 60 min, Balb/c mice

Compound `CC/C=C\C/C=C\C/C=C\CCCCCCCC(=O)OCC(COC(=O)CCCN)OC(=O)CCCN` (stereo not shown) [Compound 26, 1-linolenoyl-2,3-(gamma-aminobutyroyl)propane-1,2,3-triol] has a logP at 18 h [1] of 0.322, a remaining at 4 h (in vivo; brain) of 60% and a remaining at 4 h (in vivo; kidney) of 10%. For the same compound, the remaining at 4 h (in vivo; liver) was 30%, the ED50 [2] was 69 µmol/kg and the “(BRAIN)” value [3, 7] was 3.0 ± 0.2 nmol/g. For the same compound, the “(LIVER)” value [3, 7] was 3.3 ± 0.2 nmol/g, the BPI [3, 7] was 90±13% and the “(BRAIN)” value [3, 8] was 2.4 nmol/g. For the same compound, the “(LIVER)” value [3, 8] was 2.9 nmol/g, the BPI [3, 8] was 87% and the “(BRAIN)” value [3, 9] was 9.4 nmol/g. For the same compound, the “(LIVER)” value [3, 9] was 5.5 nmol/g, the BPI [3, 9] was 170% and the “increase of 5-min BPI over GABA” value [3] was 90 fold. The BPI [3, 10] was 90, the “time at which liver levels reach a maximum” value [3] was 45 to 60 min and the anticonvulsant properties [4] was “only weak anticonvulsant properties”. For the same compound, the “In Vivo Delay of Time of Onset of Bicuculline-induced seizures” value [4] was 4, the “level present in the brain at ED50” value [5] was 2.1 and the ED50 ([6]; Mus musculus, ip, 1 h, depression of locomotor activity at high doses, Figure 2) was 36 mg/kg. The “In Vivo Inhibition of General Motor Activity” value [6] was 4, the “effect on motor activity at low doses” value [6] was “enhancing locomotor activity; also recorded: enhances motor activity” and the “effect on motor activity at low doses” value ([6]; listed as monolinolenoyl-diGABA glyceride) was “stimulating activity”. The “Stereotypy score induced by D-Amphetamine Sulfate” value (stereotypic behavior; 170 μmole/kg i.p. pretreatment, D-amphetamine sulfate 3 mg/kg, total score over 60 min (max 18), n = 4) was 3.3 ± 0.9, the “Stereotypy score induced by Apomorphine” value (stereotypic behavior; 170 μmole/kg i.p. pretreatment, apomorphine 1 mg/kg, total score over 60 min (max 18), n = 4) was 8 ± 3.6 and the “Stereotypy (% of control), D-Amphetamine Sulfate” value (stereotypic behavior; 170 μmole/kg, D-amphetamine sulfate 3 mg/kg) was 24 % of control. For the same compound, the “Stereotypy (% of control), Apomorphine” value (stereotypic behavior; 170 μmole/kg, apomorphine 1 mg/kg) was 52 % of control.

In the case of `CC/C=C\C/C=C\C/C=C\CCCCCCCC(=O)OCC(COC(=O)CCCN)OC(=O)CCCCCCC/C=C\C/C=C\C/C=C\CC` (stereo not shown) [Compound 28, 1,2-dilinolenoyl-3-(gamma-aminobutyroyl)propane-1,2,3-triol], the logP at 18 h [1] is reported as 0.82, the ED50 [2] is reported as 43 µmol/kg and the “(BRAIN)” value [3, 11] is reported as 1.4 nmol/g. The “(LIVER)” value [3, 11] was 3.1 nmol/g, the BPI [3, 11] was 44% and the “(BRAIN)” value [3, 12] was 7.1 nmol/g. For the same compound, the “(LIVER)” value [3, 12] was 18.3 nmol/g, the BPI [3, 12] was 39% and the “(BRAIN)” value [3, 13] was 5.9 ± 0.4 nmol/g. The “(LIVER)” value [3, 13] was 4.7 ± 0.4 nmol/g, the BPI [3, 13] was 127±8.3% and the “(BRAIN)” value [3, 14] was 6.0 nmol/g. The “(LIVER)” value [3, 14] was 8.8 nmol/g, the BPI [3, 14] was 68% and the “increase of 5-min BPI over GABA” value [3] was 127 fold. For the same compound, the BPI [3, 10] was 127, the “time at which liver levels reach a maximum” value [3] was 45 to 60 min and the anticonvulsant properties [4] was “only weak anticonvulsant properties”. The “In Vivo Delay of Time of Onset of Bicuculline-induced seizures” value [4] was 5, the “level present in the brain at ED50” value [5] was 1.7 and the “In Vivo Inhibition of General Motor Activity” value [6] was 4.
